26 compounds from US12459922B2 (Gilead Sciences, Inc., priority 2022, dated 2025) can be followed below.

Structures are written as SMILES.

The assay deals with endogenous cellular STAT1 (phosphorylated at Tyr701) in NCI-H1373 cells. Kind of assay: Phospho-STAT1 (Tyr701) LANCE Ultra TR-FRET Detection Assay. It counts as cell-based. Conditions: Homo sapiens, NCI-H1373, 48 h, phospho-STAT1 (Tyr701) induction, read-out: NH1373 pSTAT1 EC50. (In general: In TR-FRET formats the signal depends on donor and acceptor labels being close together.)

As usually defined, the EC50 is the midpoint of the concentration-response curve. On to `O=c1[nH]ncc(N2CC(F)(F)C[C@H]2CCCn2ccc3cc(-c4ncc(C(F)(F)F)cn4)c(F)cc3c2=O)c1C(F)(F)F` [Example 139, 2-[3-[(2R)-4,4-difluoro-1-[6-oxo-5-(trifluoromethyl)-1H-pyridazin-4-yl]pyrrolidin-2-yl]propyl]-7-fluoro-6-[5-(trifluoromethyl)pyrimidin-2-yl]isoquinolin-1-one], for which the EC50 was 64.8 nM.

For the compound `C[C@@H](CCCn1cnc2cc(-c3ncc(Cl)cn3)c(F)cc2c1=O)Nc1cn[nH]c(=O)c1C(F)(F)F` [Example 200, (S)-7-(5-chloropyrimidin-2-yl)-6-fluoro-3-(4-((6-oxo-5-(trifluoromethyl)-1,6-dihydropyridazin-4-yl)amino)pentyl)quinazolin-4(3H)-one], the EC50 stood at 29.1 nM.

Take `O=c1[nH]ncc(N2CC[C@@H]2CCCn2ccc3cc(-c4ncc(C(F)(F)F)cn4)c(F)cc3c2=O)c1C(F)(F)F` (single isomer, unassigned) [Example 148]: the half-maximal effective concentration (EC50) worked out at 399 nM.

For `O=c1[nH]ncc(N[C@H](CCCn2cnc3cc(-c4cnc(C(F)(F)F)cn4)c(F)cc3c2=O)COC(F)F)c1C(F)(F)F` [Example 420, (R)-3-(5-(difluoromethoxy)-4-((6-oxo-5-(trifluoromethyl)-1,6-dihydropyridazin-4-yl)amino)pentyl)-6-fluoro-7-(5-(trifluoromethyl)pyrazin-2-yl)quinazolin-4(3H)-one], the EC50 came out at 9.41 nM.

As for `C[C@@H](CCCn1ccc2cc(-c3ncc(C4(F)COC4)c(N)n3)c(F)cc2c1=O)Nc1cn[nH]c(=O)c1C(F)(F)F` [Example 344, (S)-6-(4-amino-5-(3-fluorooxetan-3-yl)pyrimidin-2-yl)-7-fluoro-2-(4-((6-oxo-5-(trifluoromethyl)-1,6-dihydropyridazin-4-yl)amino)pentyl)isoquinolin-1(2H)-one], the concentration for a half-maximal effect (EC50) is 28.2 nM.

As to `C[C@@H]1C[C@@H](CCCn2ccc3cc(-c4ncc(C(F)(F)F)cn4)c(F)cc3c2=O)N(c2cn[nH]c(=O)c2C(F)(F)F)C1` [Example 174, 7-fluoro-2-(3-((2R,4R)-4-methyl-1-(6-oxo-5-(trifluoromethyl)-1,6-dihydropyridazin-4-yl)pyrrolidin-2-yl)propyl)-6-(5-(trifluoromethyl)pyrimidin-2-yl)isoquinolin-1(2H)-one], the concentration for a half-maximal effect (EC50) was determined as 287 nM.

In the case of `Nc1nc(-c2cc3ccn(CCC[C@H](COC(F)F)Nc4cn[nH]c(=O)c4C(F)(F)F)c(=O)c3c(F)c2F)ncc1Cl` [Example 391, (R)-6-(4-amino-5-chloropyrimidin-2-yl)-2-(5-(difluoromethoxy)-4-((6-oxo-5-(trifluoromethyl)-1,6-dihydropyridazin-4-yl)amino)pentyl)-7,8-difluoroisoquinolin-1(2H)-one], the EC50 stood at 6.3 nM.

On to `C#C[C@@H](CCCn1ccc2cc(-c3ncc(C(F)(F)F)cn3)c(F)cc2c1=O)Nc1cn[nH]c(=O)c1C(F)(F)F` [Example 170, 7-fluoro-2-[(4R)-4-[[6-oxo-5-(trifluoromethyl)-1H-pyridazin-4-yl]amino]hex-5-ynyl]-6-[5-(trifluoromethyl)pyrimidin-2-yl]isoquinolin-1-one], for which the EC50 worked out at 195 nM.

With `COc1cnc(-c2cc3ncn(CCC[C@H](C)Nc4cn[nH]c(=O)c4C(F)(F)F)c(=O)c3cc2F)nc1N1CC(F)(F)C1` [Example 211], the EC50 was 28.3 nM.

Regarding `N#C[C@@H](CCCn1ccc2cc(-c3ncc(C(F)(F)F)cn3)c(F)cc2c1=O)Nc1cn[nH]c(=O)c1C(F)(F)F` [Example 162, (2R)-5-[7-fluoro-1-oxo-6-[5-(trifluoromethyl)pyrimidin-2-yl]-2-isoquinolyl]-2-[[6-oxo-5-(trifluoromethyl)-1H-pyridazin-4-yl]amino]pentanenitrile], the EC50 was 662 nM.

Take `O=c1[nH]ncc(N[C@H](CCCn2ccc3cc(-c4ncc(C(F)(F)F)cn4)c(F)cc3c2=O)COC(F)(F)F)c1C(F)(F)F` [Example 435, (R)-7-fluoro-2-(4-((6-oxo-5-(trifluoromethyl)-1,6-dihydropyridazin-4-yl)amino)-5-(trifluoromethoxy)pentyl)-6-(5-(trifluoromethyl)pyrimidin-2-yl)isoquinolin-1(2H)-one]: the EC50 came to 2.83 nM.

Regarding `O=c1[nH]ncc(N[C@H]2CCC[C@H](Cn3ccc4cc(-c5ncc(C(F)(F)F)cn5)c(F)cc4c3=O)C2)c1C(F)(F)F` [Example 228, 7-fluoro-2-(((1S,3S)-3-((6-oxo-5-(trifluoromethyl)-1,6-dihydropyridazin-4-yl)amino)cyclohexyl)methyl)-6-(5-(trifluoromethyl)pyrimidin-2-yl)isoquinolin-1(2H)-one], the EC50 is 10000 nM.

For the compound `C[C@@H](CCCn1ccc2cc(-c3ncc(C(F)(F)F)cc3C#N)c(F)cc2c1=O)Nc1cn[nH]c(=O)c1C(F)(F)F` [Example 289, (S)-2-(7-fluoro-1-oxo-2-(4-((6-oxo-5-(trifluoromethyl)-1,6-dihydropyridazin-4-yl)amino)pentyl)-1,2-dihydroisoquinolin-6-yl)-5-(trifluoromethyl)nicotinonitrile], the EC50 was found to be 108 nM.

Regarding `O=c1[nH]ncc(N[C@H]2CCC[C@@H](Cn3ccc4cc(-c5cnc(C(F)F)cn5)c(F)c(F)c4c3=O)C2)c1C(F)(F)F` [Example 253, 6-(5-(difluoromethyl)pyrazin-2-yl)-7,8-difluoro-2-(((1R,3S)-3-((6-oxo-5-(trifluoromethyl)-1,6-dihydropyridazin-4-yl)amino)cyclohexyl)methyl)isoquinolin-1(2H)-one], the EC50 turned out to be 9.41 nM.

On to `Nc1nc(-c2cc3ccn(C[C@@H]4CCC[C@H](Nc5cn[nH]c(=O)c5C(F)(F)F)C4)c(=O)c3c(F)c2F)ncc1C(F)F` [Example 239], for which the EC50 was 5.37 nM.

For `C[C@@H](CCCn1ccc2cc(-c3ncc(Cl)cn3)c(F)cc2c1=O)Nc1cn[nH]c(=O)c1C(F)(F)F` [Example 98, (S)-6-(5-chloropyrimidin-2-yl)-7-fluoro-2-(4-((6-oxo-5-(trifluoromethyl)-1,6-dihydropyridazin-4-yl)amino)pentyl)isoquinolin-1(2H)-one], the EC50 stood at 9.67 nM.

Turning to `O=c1[nH]ncc(N2CCC2CCCn2cnc3cc(-c4ncc(C(F)(F)F)cn4)c(F)cc3c2=O)c1C(F)(F)F` (centres unmarked) [Example 150, 6-fluoro-3-[3-[1-[6-oxo-5-(trifluoromethyl)-1H-pyridazin-4-yl]azetidin-2-yl]propyl]-7-[5-(trifluoromethyl)pyrimidin-2-yl]quinazolin-4-one], the EC50 is 19.1 nM.

For the compound `O=c1[nH]ncc(O[C@H]2CCC[C@@H](Cn3ccc4cc(-c5ncc(C(F)F)cn5)c(F)cc4c3=O)C2)c1C(F)(F)F` [Example 456, 6-(5-(difluoromethyl)pyrimidin-2-yl)-7-fluoro-2-(((1R,3S)-3-((6-oxo-5-(trifluoromethyl)-1,6-dihydropyridazin-4-yl)oxy)cyclohexyl)methyl)isoquinolin-1(2H)-one], the EC50 came out at 48 nM.

On to `O=c1[nH]ncc(N[C@H]2CCC[C@@H](Cn3ccc4cc(-c5ncc(OCCO)cn5)c(F)cc4c3=O)C2)c1C(F)(F)F` [Example 495, 7-fluoro-6-[5-(2-hydroxyethoxy)pyrimidin-2-yl]-2-[[(1R,3S)-3-[[6-oxo-5-(trifluoromethyl)-1H-pyridazin-4-yl]amino]cyclohexyl]methyl]isoquinolin-1-one], for which the EC50 was 29 nM.

Turning to `Cc1c[nH]c2nc(-c3cc4ncn(CCC[C@H](C)Nc5cn[nH]c(=O)c5C(F)(F)F)c(=O)c4cc3F)ncc12` [Example 63, 6-fluoro-7-(5-methyl-7H-pyrrolo[2,3-d]pyrimidin-2-yl)-3-[(4S)-4-[[6-oxo-5-(trifluoromethyl)-1H-pyridazin-4-yl]amino]pentyl]quinazolin-4-one], the EC50 is 7.15 nM.

Consider `Cc1cnc(N)nc1-c1cc2ccn(CCC[C@H](C)Nc3cn[nH]c(=O)c3C(F)(F)F)c(=O)c2c(F)c1F` [Example 80, (S)-6-(2-amino-5-methylpyrimidin-4-yl)-7,8-difluoro-2-(4-((6-oxo-5-(trifluoromethyl)-1,6-dihydropyridazin-4-yl)amino)pentyl)isoquinolin-1(2H)-one], for which the EC50 was 479 nM.

On to `N#CC[C@@H](CCCn1ccc2cc(-c3ncc(C(F)(F)F)cn3)c(F)cc2c1=O)Nc1cn[nH]c(=O)c1C(F)(F)F` [Example 160, (3R)-6-[7-fluoro-1-oxo-6-[5-(trifluoromethyl)pyrimidin-2-yl]-2-isoquinolyl]-3-[[6-oxo-5-(trifluoromethyl)-1H-pyridazin-4-yl]amino]hexanenitrile], for which the EC50 stood at 219 nM.

For the compound `O=c1[nH]ncc(N[C@H]2CCC[C@@H](Cn3ccc4cc(-c5cnc(C(F)(F)F)cn5)c(F)cc4c3=O)C2)c1C(F)(F)F` [Example 256, 7-fluoro-2-(((1R,3S)-3-((6-oxo-5-(trifluoromethyl)-1,6-dihydropyridazin-4-yl)amino)cyclohexyl)methyl)-6-(5-(trifluoromethyl)pyrazin-2-yl)isoquinolin-1(2H)-one], the 50% effective concentration (EC50) worked out at 30.2 nM.

Turning to `C[C@@H]1[C@H](O)CN1c1nc(-c2cc3ncn(CCC[C@H](C)Nc4cn[nH]c(=O)c4C(F)(F)F)c(=O)c3cc2F)ncc1C(F)(F)F` [Example 288, 6-fluoro-7-(4-((2R,3R)-3-hydroxy-2-methylazetidin-1-yl)-5-(trifluoromethyl)pyrimidin-2-yl)-3-((S)-4-((6-oxo-5-(trifluoromethyl)-1,6-dihydropyridazin-4-yl)amino)pentyl)quinazolin-4(3H)-one], the EC50 was 10.5 nM.

Take `O=c1[nH]ncc(NC[C@H]2C[C@H](Cn3ccc4cc(-c5ncc(C(F)(F)F)cn5)c(F)c(F)c4c3=O)C2)c1C(F)(F)F` [Example 130, 7,8-difluoro-2-(((1R,3R)-3-(((6-oxo-5-(trifluoromethyl)-1,6-dihydropyridazin-4-yl)amino)methyl)cyclobutyl)methyl)-6-(5-(trifluoromethyl)pyrimidin-2-yl)isoquinolin-1(2H)-one]: the EC50 came out at 1470 nM.

`COc1cnc(-c2cc3ccn(CCC[C@H](C)Nc4cn[nH]c(=O)c4C(F)(F)F)c(=O)c3cc2F)nc1N1CCC1` [Example 186, (S)-6-(4-(azetidin-1-yl)-5-methoxypyrimidin-2-yl)-7-fluoro-2-(4-((6-oxo-5-(trifluoromethyl)-1,6-dihydropyridazin-4-yl)amino)pentyl)isoquinolin-1(2H)-one]: the EC50 turned out to be 66.1 nM.
